Columns and labels:
[1] = test system: IL-17A-induced G-CSF production in human normal keratinocyte (NHK); assay: NHK Assay: IL-17A-induced G-CSF production in human normal keratinocyte; assay type: cell-based; settings: Homo sapiens, Keratinocyte, 24 h, IL-17A 5 ng/mL, simple average if tested more than once
Experimental: IL-17A acts directly on keratinocytes through binding to dimeric receptor IL-17RA/RC and drives the production of a number of inflammatory mediators known to be elevated in psoriasis lesional tissue. IL-17A small molecule inhibitors that block the IL-17A to interact with IL-17R would inhibit the IL-17A signaling in its targeted cells such as keratinocytes. The compound functional activity is evaluated for its impact on IL-17A-induced G-CSF production in human normal keratinocyte (NHK).
Adult normal human keratinocytes are cultured in keratinocyte growth medium (Lonza) in a flask till reaching ˜90% confluence, then cells are transferred to a 384-well plate at density of 3000-4000 cell/well. Recombinant human IL-17A (Gibco PHC9174) is pre-incubated with titrated compound or DMSO for 1 h at rt then added to the cell culture plate. The final concentration of IL-17A is 5 ng/mL and DMSO is 0.2%, in the culture containing 5% FBS. Cells are cultured/treated for 24 h at 37° C. Supernatants are collected and G-CSF production is measured through HTRF technology using Human G-CSF Kit (CisBio). G-CSF concentration was extrapolated from the standard curve and IC50 is determined using GraphPad Prism. Cell viability is also evaluated using CellTiter-Glo kit (Promega) and effect of compound on cell viability is compared to DMSO control.

[2] = molecular target: IL-17A(FLAG-Tagged): IL-17RA(His-Tagged) (Homo sapiens, UniProt Q16552, K93Q); assay: IL-17A(FLAG-Tagged): IL-17RA(His-Tagged) Binding Disruption Eu-HTRF Assay, Protocol 1; settings: Protocol 1, FLAG tagged IL-17A 2.5 nM; simple average if tested more than once
Chain of UniProt Q16552 (Q16552 with tags, fused parts or gaps K93Q): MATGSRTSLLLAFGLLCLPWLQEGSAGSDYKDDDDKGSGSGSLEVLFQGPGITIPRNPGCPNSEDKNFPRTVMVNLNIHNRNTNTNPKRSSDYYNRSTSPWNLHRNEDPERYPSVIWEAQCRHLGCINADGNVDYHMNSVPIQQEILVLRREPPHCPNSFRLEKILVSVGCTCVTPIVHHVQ
Excerpt: An antibody directed against the FLAG tag of IL-17A (SEQ ID NO: 1) is labeled with the HTRF donor chromophore (Europium-cryptate). IL-17A is present as a dimer that is “locked into” this quaternary structure due to the formation of loop-spanning […] disulfide bridges. The construct of IL-17RA used in the assay excludes the […] portion of the receptor and is fused to a C-terminal 10×His tag (SEQ ID NO:2). An antibody directed against the His tag of the IL-17RA chimera is labeled with the HTRF acceptor chromophore (“D2”). The fluorescence-resonance energy transfer (FRET) depends on the vicinity of the donor chromophore to the acceptor, and interruption of the binding between the IL-17A and IL-17RA causes the reduction/loss of FRET. Therefore, this assay allows to evaluate the compound effect on the binding IL-17A and IL-17RA by monitoring the fluorescence intensity of donor vs acceptor. The assay was run using either Protocol 1 or Protocol 2 as described below.
Protocol 1. 40 nl of 2-fold serial diluted compound solution for total 22 dilution points is added into each well of a 1536-well, white, low-volume, non-binding plate (Greiner #782904), then 2 μl of FLAG tagged IL-17A at 2× final concentration (2.5 nM) in solution of PBS+0.01% Triton-X100 is added to each well. The assay plate is briefly centrifuged then incubated for 1 h at rt. A mixed solution is prepared containing 2×5 nM 10HIS×IL-17RA, 2×2.5 nM Eu-anti-FLAG (CISBIO), 2×5 nM D2-anti-HIS (CISBIO) in PBS+0.01% Triton-X100+200 mM Potassium Fluoride (Sigma 60238) and 2 μl of mix is added to each well of the assay plate. The plate is briefly centrifuged then incubated for 2 h at rt. The HTRF intensities at the wavelength of donor (620 nm) and acceptor (665 nm) are measured using BMG Pherastar. The ratio between intensities at two wavelengths is calculated and plotted against the compound concentration and the data is fitted to a one-site competition model to yield IC50 of the compound.

Row | Compound | IC50 [2] | IC50 [1]
1 | CC(C)(OC[C@H](NC(=O)c1nonc1C1CC1)c1nc2nc(CN3C[C@@H](C(F)(F)F)NC3=O)ccc2[nH]1)C(F)(F)F (relative stereo) [Example 39, 4-Cyclopropyl-N—((R*)-1-(5-(((S*)-2-oxo-4-(trifluoromethyl)imidazolidin-1-yl)methyl)-1H-imidazo[4,5-b]pyridin-2-yl)-2-((1,1,1-trifluoro-2-methylpropan-2-yl)oxy)ethyl)-1,2,5-oxadiazole-3-carboxamide] | > 100 nM | > 100 nM
2 | Cc1nonc1C(=O)N[C@@H](COC(C)(C)C(F)(F)F)c1nc2cc([C@@H](C3CC3)N3C[C@@H](C4CC4)NC3=O)ccc2[nH]1 [Example 84, N—((R)-1-(5-((R)-Cyclopropyl((R)-4-cyclopropyl-2-oxoimidazolidin-1-yl)methyl)-1H-benzo[d]imidazol-2-yl)-2-((1,1,1-trifluoro-2-methylpropan-2-yl)oxy)ethyl)-4-methyl-1,2,5-oxadiazole-3-carboxamide] | < 50 nM | < 50 nM
3 | CC(C)(OC[C@@H](NC(=O)c1nonc1C1CC1)c1nc2cc(CN3C[C@@H](C(F)(F)F)NC3=O)ccc2[nH]1)C(F)(F)F (single isomer, unassigned) [Example 16] | > 100 nM | > 100 nM
4 | [2H]C1([2H])[C@@H](C(F)(F)F)NC(=O)N1[C@H](COC1CC1)c1ccc2[nH]c([C@H](COC(C)(C)C(F)(F)F)NC(=O)c3nonc3C)nc2c1 (relative stereo) [Example 59, N—((R*)-1-(5-((S*)-2-Cyclopropoxy-1-((S*)-2-oxo-4-(trifluoromethyl)imidazolidin-1-yl-5,5-d2)ethyl)-1H-benzo[d]imidazol-2-yl)-2-((1,1,1-trifluoro-2-methylpropan-2-yl)oxy)ethyl)-4-methyl-1,2,5-oxadiazole-3-carboxamide] | < 50 nM | < 50 nM
5 | CC(C)n1nccc1C(=O)N[C@H](c1nc2c(F)cc([C@@H](C3CC3)N3C[C@@H](C(F)(F)F)NC3=O)cc2[nH]1)[C@@H](C)O[C@H](C)C(F)(F)F [Example 85, N-[(1R,2R)-1-[6-[(R)-Cyclopropyl-[(4S)-2-oxo-4-(trifluoromethyl)imidazolidin-1-yl]methyl]-4-fluoro-1H-benzimidazol-2-yl]-2-[(1R)-2,2,2-trifluoro-1-methyl-ethoxy]propyl]-2-isopropyl-pyrazole-3-carboxamide] | 50 to 100 nM | < 50 nM
6 | CC(C)n1nccc1C(=O)N[C@@H](COC(C)(C)C(F)(F)F)c1nc2nc(CN3C[C@H](C(F)(F)F)NC3=O)ccc2[nH]1 (relative stereo) [Example 36, 1-Isopropyl-N—((R*)-1-(5-(((R*)-2-oxo-4-(trifluoromethyl)imidazolidin-1-yl)methyl)-1H-imidazo[4,5-b]pyridin-2-yl)-2-((1,1,1-trifluoro-2-methylpropan-2-yl)oxy)ethyl)-1H-pyrazole-5-carboxamide] | < 50 nM | < 50 nM
7 | COC[C@H](c1ccc2[nH]c(C(COC(C)(C)C(F)(F)F)NC(=O)c3nonc3C)nc2c1)N1C[C@@H](C(F)(F)F)NC1=O (single isomer, unassigned) [Example 31, N—((R*)-1-(5-((S)-2-Methoxy-1-((S)-2-oxo-4-(trifluoromethyl)imidazolidin-1-yl)ethyl)-1H-benzo[d]imidazol-2-yl)-2-((1,1,1-trifluoro-2-methylpropan-2-yl)oxy)ethyl)-4-methyl-1,2,5-oxadiazole-3-carboxamide] | < 50 nM | < 50 nM
8 | CC(C)(OC[C@H](NC(=O)c1nonc1C1CC1)c1nc2cc(CN3CC(C(F)(F)F)NC3=O)ccc2[nH]1)C(F)(F)F (stereo in doubt) [Example 33, 4-Cyclopropyl-N—((R)-1-(5-(((R*)-2-oxo-4-(trifluoromethyl)imidazolidin-1-yl)methyl)-1H-benzo[d]imidazol-2-yl)-2-((1,1,1-trifluoro-2-methylpropan-2-yl)oxy)ethyl)-1,2,5-oxadiazole-3-carboxamide] | 50 to 100 nM | > 100 nM
9 | CC(C)(OC[C@H](NC(=O)c1nonc1C1CC1)c1nc2ccc(CN3CC(F)(F)CNC3=O)cc2[nH]1)C(F)(F)F [Example 30, (R)-4-Cyclopropyl-N-(1-(6-((5,5-difluoro-2-oxotetrahydropyrimidin-1(2H)-yl)methyl)-1H-benzo[d]imidazol-2-yl)-2-((1,1,1-trifluoro-2-methylpropan-2-yl)oxy)ethyl)-1,2,5-oxadiazole-3-carboxamide] | < 50 nM | < 50 nM
10 | Cc1nonc1C(=O)NC(COC(C)(C)C(F)(F)F)c1nc2cc([C@@H](COC3CC3)N3CC(F)(F)CNC3=O)ccc2[nH]1 (single isomer, unassigned) [Example 56, N—((R*)-1-(5-((S)-2-Cyclopropoxy-1-(5,5-difluoro-2-oxotetrahydropyrimidin-1(2H)-yl)ethyl)-1H-benzo[d]imidazol-2-yl)-2-((1,1,1-trifluoro-2-methylpropan-2-yl)oxy)ethyl)-4-methyl-1,2,5-oxadiazole-3-carboxamide] | < 50 nM | < 50 nM

Continued, in another order:

Row | IC50 [2] | Compound | IC50 [1]
11 | < 50 nM | CC(C)n1ncnc1C(=O)N[C@@H](COC(C)(C)C(F)(F)F)c1nc2cc([C@@H](C3CC3)N3C[C@@H](C(F)(F)F)NC3=O)ccc2[nH]1 [Example 5, N—((R)-1-(5-((R)-Cyclopropyl((S)-2-oxo-4-(trifluoromethyl)imidazolidin-1-yl)methyl)-1H-benzo[d]imidazol-2-yl)-2-((1,1,1-trifluoro-2-methylpropan-2-yl)oxy)ethyl)-1-isopropyl-1H-1,2,4-triazole-5-carboxamide] | < 50 nM
12 | < 50 nM | C[C@H](O[C@H](C)C(NC(=O)c1ccnn1C)c1nc2cc([C@@H](C3CC3)N3C[C@@H](C(F)(F)F)NC3=O)ccc2[nH]1)C(F)(F)F (single isomer, unassigned) [Example 14, N-((1R*,2R)-1-(5-((R)-Cyclopropyl((S)-2-oxo-4-(trifluoromethyl)imidazolidin-1-yl)methyl)-1H-benzo[d]imidazol-2-yl)-2-(((S)-1,1,1-trifluoropropan-2-yl)oxy)propyl)-1-methyl-1H-pyrazole-5-carboxamide] | < 50 nM
13 | < 50 nM | CC(C)n1nccc1C(=O)N[C@@H](COC(C)(C)C(F)(F)F)c1nc2ccc(CN3CC(F)(F)CNC3=O)cc2[nH]1 [Example 29, (R)—N-(1-(6-((5,5-Difluoro-2-oxotetrahydropyrimidin-1(2H)-yl)methyl)-1H-benzo[d]imidazol-2-yl)-2-((1,1,1-trifluoro-2-methylpropan-2-yl)oxy)ethyl)-1-isopropyl-1H-pyrazole-5-carboxamide] | < 50 nM
14 | < 50 nM | COC[C@H](c1ccc2[nH]c(C(COC(C)(C)C(F)(F)F)NC(=O)c3cnn(CC4CC4)n3)nc2c1)N1CC(F)(F)CNC1=O (single isomer, unassigned) [Example 51, 2-(Cyclopropylmethyl)-N—((R*)-1-(5-((S)-1-(5,5-difluoro-2-oxotetrahydropyrimidin-1(2H)-yl)-2-methoxyethyl)-1H-benzo[d]imidazol-2-yl)-2-((1,1,1-trifluoro-2-methylpropan-2-yl)oxy)ethyl)-2H-1,2,3-triazole-4-carboxamide] | 50 to 100 nM
15 | < 50 nM | Cc1nonc1C(=O)NC(c1nc2nc([C@@H](C3CC3)N3CC(F)(F)CNC3=O)ccc2[nH]1)[C@@H](C)O[C@H](C)C(F)(F)F (single isomer, unassigned) [Example 19, N-((1R*,2R)-1-(5-((R)-Cyclopropyl(5,5-difluoro-2-oxotetrahydropyrimidin-1(2H)-yl)methyl)-1H-imidazo[4,5-b]pyridin-2-yl)-2-(((R)-1,1,1-trifluoropropan-2-yl)oxy)propyl)-4-methyl-1,2,5-oxadiazole-3-carboxamide] | 50 to 100 nM

— patent US20250122181A1, “BENZIMIDAZOLES AS MODULATORS OF IL-17” (Janssen Pharmaceutica NV, priority 2021, published 2025)
